Laboratory results published in US9796741B2 (Achillion Pharmaceuticals, Inc., priority 2014, dated 2017).

Biological target: Human factor D (Homo sapiens (Human), UniProt P00746)
Experiment: Human Factor D Assay
Assay type: biochemical
Settings: human factor D 80 nM, substrate Z-L-Lys-SBzl, DTNB
Method in brief: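 Serum-purified factor D (80 nM final) preincubated 5 min at room temperature with compound in 50 mM Tris, 1M NaCl, pH 7.5. Z-L-Lys-SBzl and DTNB added at 100 μM each; OD405 followed kinetically over 30 min. IC50 by non-linear regression of % inhibition.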

Sequence of Human factor D (P00746 26-253): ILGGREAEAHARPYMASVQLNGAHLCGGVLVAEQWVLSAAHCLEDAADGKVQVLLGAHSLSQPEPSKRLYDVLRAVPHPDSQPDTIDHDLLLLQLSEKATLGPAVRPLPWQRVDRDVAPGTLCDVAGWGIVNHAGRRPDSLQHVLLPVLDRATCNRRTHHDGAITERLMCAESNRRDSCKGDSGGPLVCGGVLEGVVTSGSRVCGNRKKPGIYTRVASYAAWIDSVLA

NC(=O)c1nn(CC(=O)N2C[C@H](F)C[C@H]2C(=O)NCc2cccc(Cl)c2)c2ccc(-c3ccnnc3)cc12 [Compound 45, 1-(2-((2S,4R)-2-(3-chlorobenzylcarbamoyl)-4-fluoropyrrolidin-1-yl)-2-oxoethyl)-5-(pyridazin-4-yl)-1H-indazole-3-carboxamide]
IC50: < 1 µM

CC(=O)c1cn(CC(=O)N2C[C@H](F)C[C@H]2C(=O)Nc2ccccc2N2CCOC2=O)c2ccc(-c3ccnnc3)cc12 [Compound 64, (2S,4R)-1-(2-(3-acetyl-5-(pyridazin-4-yl)-1H-indol-1-yl)acetyl)-4-fluoro-N-(2-(2-oxooxazolidin-3-yl)phenyl)pyrrolidine-2-carboxamide]
IC50: > 10 µM

CC(=O)c1cn(CC(=O)N2C[C@H](F)C[C@H]2C(=O)Nc2ccc(CN)cc2)c2ccc(-c3ccnnc3)cc12 [Compound 85, (2S,4R)-1-(2-(3-acetyl-5-(pyridazin-4-yl)-1H-indol-1-yl)acetyl)-N-(4-(aminomethyl)phenyl)-4-fluoropyrrolidine-2-carboxamide]
IC50: > 10 µM

CC(=O)c1cn(CC(=O)N2C[C@H](F)C[C@H]2C(=O)NCc2ccccn2)c2ccc(-c3ccnnc3)cc12 [Compound 38, (2S,4R)-1-(2-(3-acetyl-5-(pyridazin-4-yl)-1H-indol-1-yl)acetyl)-4-fluoro-N-(pyridin-2-ylmethyl)pyrrolidine-2-carboxamide]
IC50: < 1 µM

CC(=O)c1cn(CC(=O)N2C[C@H](F)C[C@H]2C(=O)Nc2cccc(Br)n2)c2ccc(-c3cccc(Cl)c3)cc12 [Compound 119, (2S,4R)-1-(2-(3-acetyl-5-(3-chlorophenyl)-1H-indol-1-yl)acetyl)-N-(6-bromopyridin-2-yl)-4-fluoropyrrolidine-2-carboxamide]
IC50: < 1 µM

CC(=O)c1cn(CC(=O)N2C[C@H](F)C[C@H]2C(=O)Nc2nc(-c3c(C)nc4sccn34)cs2)c2ccc(-c3ccnnc3)cc12 [Compound 57, (2S,4R)-1-(2-(3-acetyl-5-(pyridazin-4-yl)-1H-indol-1-yl)acetyl)-4-fluoro-N-(4-(6-methylimidazo[2,1-b]thiazol-5-yl)thiazol-2-yl)pyrrolidine-2-carboxamide]
IC50: > 10 µM

CC(=O)c1cn(CC(=O)N2C[C@H](F)C[C@H]2C(=O)Nc2cccc(-c3ccccc3Cl)c2F)c2ccc(N3CCN(c4ncc(F)cn4)CC3)cc12 [Compound 32, (2S,4R)-1-(2-(3-acetyl-5-(4-(5-fluoropyrimidin-2-yl)piperazin-1-yl)-1H-indol-1-yl)acetyl)-N-(2′-chloro-2-fluorobiphenyl-3-yl)-4-fluoropyrrolidine-2-carboxamide]
IC50: < 1 µM

NC(=O)c1nn(CC(=O)N2C[C@H](F)C[C@H]2C(=O)N[C@@H]2CCC[C@H]2O)c2ccc(-c3ccnnc3)cc12 [Compound 145, 1-(2-((2S,4R)-4-fluoro-2-((1R,2R)-2-hydroxycyclopentyl-carbamoyl)pyrrolidin-1-yl)-2-oxoethyl)-5-(pyridazin-4-yl)-1H-indazole-3-carboxamide]
IC50: > 10 µM

CC(=O)c1cn(CC(=O)N2C[C@H](F)C[C@H]2C(=O)Nc2cccc(Br)n2)c2ccc(-c3ccc(C)nc3)cc12 [Compound 120, (2S,4R)-1-(2-(3-acetyl-5-(6-methylpyridin-3-yl)-1H-indol-1-yl)acetyl)-N-(6-bromopyridin-2-yl)-4-fluoropyrrolidine-2-carboxamide]
IC50: < 1 µM

CC(=O)c1cn(CC(=O)N2C[C@H](F)C[C@H]2C(=O)Nc2cccc(O)n2)c2ccc(-c3ccnnc3)cc12 [Compound 144, (2S,4R)-1-(2-(3-acetyl-5-(pyridazin-4-yl)-1H-indol-1-yl)acetyl)-4-fluoro-N-(6-hydroxypyridin-2-yl)pyrrolidine-2-carboxamide]
IC50: > 10 µM

NC(=O)c1nn(CC(=O)N2C[C@H](F)C[C@H]2C(=O)Nc2cccc(Br)n2)c2ccc(-c3ccnnc3)cc12 [Compound 25, 1-(2-((2S,4R)-2-(6-bromopyridin-2-ylcarbamoyl)-4-fluoropyrrolidin-1-yl)-2-oxoethyl)-5-(pyridazin-4-yl)-1H-indazole-3-carboxamide]
IC50: < 1 µM

NC(=O)c1nn(CC(=O)N2C[C@H](F)C[C@H]2C(=O)Nc2cccc(Br)n2)c2ccc(-c3cncnc3)cc12 [Compound 5, 1-(2-((2S,4R)-2-(6-bromopyridin-2-ylcarbamoyl)-4-fluoropyrrolidin-1-yl)-2-oxoethyl)-5-(pyrimidin-5-yl)-1H-indazole-3-carboxamide]
IC50: < 1 µM

NC(=O)c1nn(CC(=O)N2[C@@H]3C[C@@H]3C[C@H]2C(=O)Nc2cccc(-c3ccccc3Cl)c2F)c2ccc(-c3cncnc3)cc12 [Compound 6, 1-(2-((1R,3S,5R)-3-(2′-chloro-2-fluorobiphenyl-3-ylcarbamoyl)-2-azabicyclo[3.1.0]hexan-2-yl)-2-oxoethyl)-5-(pyrimidin-5-yl)-1H-indazole-3-carboxamide]
IC50: < 1 µM

NC(=O)c1nn(CC(=O)N2[C@@H]3C[C@@H]3C[C@H]2C(=O)Nc2cccc(-c3ccccc3Cl)c2F)c2ccc(-c3ccc(F)nc3)cc12 [Compound 13, 1-(2-((lR,3S,5R)-3-(2′-chloro-2-fluorobiphenyl-3-ylcarbamoyl)-2-azabicyclo[3.1.0]hexan-2-yl)-2-oxoethyl)-5-(6-fluoropyridin-3-yl)-1H-indazole-3-carboxamide]
IC50: < 1 µM

CC(=O)c1cn(CC(=O)N2C[C@H](F)C[C@H]2C(=O)Nc2cccc3c2NC(=O)C(C)O3)c2ccc(-c3ccnnc3)cc12 (stereo partly drawn) [Compound 153, (2S,4R)-1-(2-(3-acetyl-5-(pyridazin-4-yl)-1H-indol-1-yl)acetyl)-4-fluoro-N-(2-methyl-3-oxo-3,4-dihydro-2H-benzo[b][1,4]oxazin-5-yl)pyrrolidine-2-carboxamide]
IC50: > 10 µM

COc1cc(C)cc2c1OCCC2NC(=O)[C@@H]1C[C@@H](F)CN1C(=O)Cn1cc(C(C)=O)c2cc(-c3ccnnc3)ccc21 (stereo partly drawn) [Compound 123, (2S,4R)-1-(2-(3-acetyl-5-(pyridazin-4-yl)-1H-indol-1-yl)acetyl)-4-fluoro-N-(8-methoxy-6-methylchroman-4-yl)pyrrolidine-2-carboxamide]
IC50: > 10 µM

CC(=O)c1cn(CC(=O)N2C[C@H](F)C[C@H]2C(=O)Nc2nc(-c3ccc4c(c3)CCCC4)cs2)c2ccc(-c3ccnnc3)cc12 [Compound 54, (2S,4R)-1-(2-(3-acetyl-5-(pyridazin-4-yl)-1H-indol-1-yl)acetyl)-4-fluoro-N-(4-(5,6,7,8-tetrahydronaphthalen-2-yl)thiazol-2-yl)pyrrolidine-2-carboxamide]
IC50: > 10 µM

NC(=O)c1nn(CC(=O)N2C[C@H](F)C[C@H]2C(=O)Nc2ccc3ncsc3c2)c2ccc(-c3ccnnc3)cc12 [Compound 50, 1-(2-((2S,4R)-2-(benzo[d]thiazol-6-ylcarbamoyl)-4-fluoropyrrolidin-1-yl)-2-oxoethyl)-5-(pyridazin-4-yl)-1H-indazole-3-carboxamide]
IC50: > 10 µM

NC(=O)c1nn(CC(=O)N2C[C@H](F)C[C@H]2C(=O)Nc2nnc(-c3ccc(Cl)c(Cl)c3)s2)c2ccc(-c3ccnnc3)cc12 [Compound 69, 1-(2-((2S,4R)-2-(5-(3,4-dichlorophenyl)-1,3,4-thiadiazol-2-ylcarbamoyl)-4-fluoropyrrolidin-1-yl)-2-oxoethyl)-5-(pyridazin-4-yl)-1H-indazole-3-carboxamide]
IC50: > 10 µM

NC(=O)c1nn(CC(=O)N2C[C@H](F)C[C@H]2C(=O)Nc2cccc(-c3ccccc3Cl)c2F)c2ccc(-c3cnc(N4CCCC4)nc3)cc12 [Compound 10]
IC50: < 1 µM
